# In patent US11186577B2, “Vasopressin receptor antagonists and products and methods related thereto” (BlackThorn Therapeutics, Inc., priority 2017, dated 2021):
# Like-named read-outs stand apart in the source and are kept apart here.
# How the values were obtained:
# [1] = target: human Oxytocin Receptor (hOTR) (Homo sapiens (Human), UniProt P30559); test: Oxytocin receptor antagonist assay (oxytocin-evoked calcium, FLIPR, CHEM-1-hOTR cells); assay type: cell-based; details: read-out: OT IC50
# Outline: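 Oxytocin-evoked intracellular calcium rise measured by FLIPR^TETRA fluorescence (Calcium-6 dye, 3 min read) in CHEM-1-hOTR cells. Test compounds, 10-point 1:3 dilutions, were added 15 min at 37 °C before an EC80 oxytocin challenge (EC80 set each assay day); buffer HBSS with 20 mM HEPES.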
# [2] = target: human Arginine Vasopressin Receptor V2 (AVPR2) (Homo sapiens (Human), UniProt P30518); test: Vasopressin V2 receptor antagonist assay (cAMP TR-FRET, 1321N1 cells); assay type: cell-based
# Chain of human Arginine Vasopressin Receptor V2 (AVPR2) (P30518 whole entry): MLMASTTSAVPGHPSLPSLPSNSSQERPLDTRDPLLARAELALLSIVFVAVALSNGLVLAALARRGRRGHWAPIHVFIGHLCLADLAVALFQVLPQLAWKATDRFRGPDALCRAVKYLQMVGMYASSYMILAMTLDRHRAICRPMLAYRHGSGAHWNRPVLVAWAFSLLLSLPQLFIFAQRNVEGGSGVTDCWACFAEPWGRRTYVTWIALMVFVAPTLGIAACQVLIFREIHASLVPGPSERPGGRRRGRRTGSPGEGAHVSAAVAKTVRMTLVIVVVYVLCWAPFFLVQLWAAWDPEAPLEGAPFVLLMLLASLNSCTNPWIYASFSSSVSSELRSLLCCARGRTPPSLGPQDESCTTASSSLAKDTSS
# Method: The purpose of the assay was to determine the inhibitory effect of synthesized compounds on the Vasopressin receptor 2. […] Arginine Vasopressin (AVP) evokes an increase in intracellular cAMP in these cells which is measured in a TR-FRET assay using a Europium cAMP tracer and ULight labelled antibody reagents contained in a LANCE Ultra cAMP kit (Perkin Elmer #TRF0263). […] Test compounds were assessed for their ability to affect the magnitude of the response to AVP, with antagonists showing a concentration-dependent decrease in the AVP-mediated reduction in TR-FRET signal.
# cAMPZen V2 assay ready cells were thawed at 37° C. and resuspended directly from frozen in 9 ml growth medium consisting of DMEM supplemented with 10% v/v fetal bovine serum, 1× non-essential amino acids, and 1 mM sodium pyruvate. Cells were spun at 1000 rpm for 3 minutes and the supernatant was carefully removed and discarded. The pellet was resuspended in 5 ml stimulation buffer and the cell density determined using the Vi-Cell automated cell counter. The cell suspension was diluted to a 0.2×10^6/ml suspension ready for plating. […] Stimulation buffer consisted of HBSS (+Ca/+Mg) supplemented with 5 mM HEPES, 0.1% BSA stabiliser and 0.5 mM IBMX.
# At the start of each assay day the potency of AVP was assessed and an EC80 concentration determined for subsequent compound profiling. Assays were performed by first an addition of 2.5 μl of control or test compound at 4× final concentration in stimulation buffer followed by 2.5 μl of AVP at 4× final concentration in stimulation buffer. After a 1 hour reaction, detection reagents were added by first an addition of 5 μl EU-cAMP tracer, followed by 5 μl ULight-anti-cAMP both diluted as per the manufacturer's instructions. […] For compound profiling, test compounds were dispensed by the Labcyte Echo (10-point curve, 1:3 dilutions) in a target 0.1 μl volume then diluted 750-fold in stimulation buffer containing 3% DMSO prior to addition to the cells. At the end of the incubation period, 2.5 μl of AVP in stimulation buffer was added at the previously determined EC80 concentration.
# MDR1-MDCK cells = test: MDR1-MDCK effective efflux assay (Transwell, 10 μM, 1 hour), MDR1-MDCK cells; assay type: in vitro ADME; details: MDR1-MDCK cells, apical to basolateral (A>B), 10 μM, 1 hour
# Outline: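 Wild-type and MDR1-MDCK monolayers cultured 3 days were dosed with compound at 10 μM (0.1% DMSO) in HBSS/25 mM HEPES pH 7.4, in both A>B and B>A directions, for 1 h at 37 °C. Samples were quantified by LC-MS/MS to give Papp and efflux ratio. Effective efflux ratio = ER(MDR1-MDCK)/ER(wild-type); Lucifer Yellow checked monolayer integrity.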
# Chain of human Oxytocin Receptor (hOTR) (P30559 whole entry): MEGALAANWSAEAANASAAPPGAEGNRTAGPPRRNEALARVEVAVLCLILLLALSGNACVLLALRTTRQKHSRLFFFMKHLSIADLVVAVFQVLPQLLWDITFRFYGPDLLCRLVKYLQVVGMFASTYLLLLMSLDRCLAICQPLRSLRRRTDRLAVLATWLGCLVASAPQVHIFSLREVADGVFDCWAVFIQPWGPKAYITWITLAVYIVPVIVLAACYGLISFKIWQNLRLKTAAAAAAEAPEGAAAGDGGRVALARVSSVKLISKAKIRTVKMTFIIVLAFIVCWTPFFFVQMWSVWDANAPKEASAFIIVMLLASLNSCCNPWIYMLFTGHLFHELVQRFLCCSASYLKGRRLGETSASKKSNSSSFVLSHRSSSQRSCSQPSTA
SMILES,IC50 [1],IC50 [2],"IC50 ([1]; in vitro antagonist assay, reference compounds)",Papp AB MDR1 (MDR1-MDCK cells)
"COC(=O)N1Cc2cc(Cl)ccc2-n2c(C3CC4(C3)CN(c3ncc(F)cn3)C4)nnc2C1C (single isomer, unassigned) [Cpd 170A]",> 1000 nM,500 to 1000 nM,,
"CN1Cc2cc(Cl)ccc2-n2c(nnc2[C@H]2CC[C@H](Oc3ccccn3)CC2)C1 [balovaptan, reference compound]",,,> 1000 nM,
O=C(C(F)F)N1Cc2cc(Cl)ccc2-n2c(nnc2C2CC3(C2)CN(C(=O)C2(F)CC2)C3)C1 [compound 134],> 1000 nM,> 1000 nM,,
"CC(C)OC(=O)N1Cc2cc(Cl)ccc2-n2c(C3CC4(C3)CN(c3ncccn3)C4)nnc2C1C (single isomer, unassigned) [Cpd 167A]",500 to 1000 nM,> 1000 nM,,++++ ((++++) denotes >20 (10^-6 cm/sec))
CC1c2nnc(C3CC4(C3)CN(c3ncccn3)C4)n2-c2ccc(Cl)cc2CN1C(=O)C1(F)CC1 (stereo not shown) [compound 175],> 1000 nM,> 1000 nM,,
CC(C)N1Cc2cc(Cl)ccc2-n2c(nnc2C2CC3(C2)CN(c2cnccn2)C3)C1 [compound 47],> 1000 nM,> 1000 nM,,
"COC(=O)N1Cc2cc(Cl)ccc2-n2c(C3CC4(C3)CN(c3ccc(F)cn3)C4)nnc2C1C (single isomer, unassigned) [Cpd 142B]",500 to 1000 nM,> 1000 nM,,
"CCOC(=O)N1Cc2cc(Cl)ccc2-n2c(C3CC4(C3)CN(c3ncccn3)C4)nnc2C1C (single isomer, unassigned) [Cpd 168A]",500 to 1000 nM,> 1000 nM,,++++ ((++++) denotes >20 (10^-6 cm/sec))
CN1Cc2cc(Cl)ccc2-n2c(nnc2C2CC3(C2)CN(c2cnccn2)C3)C1 [compound 3],> 1000 nM,> 1000 nM,,
"CC(C)OC(=O)N1Cc2cc(Cl)ccc2-n2c(C3CC4(C3)CN(c3ncc(F)cn3)C4)nnc2C1C (single isomer, unassigned) [Cpd 201A]",,> 1000 nM,,++++ ((++++) denotes >20 (10^-6 cm/sec))
"CC1c2nnc(C3CC4(C3)CN(c3ccc(F)cn3)C4)n2-c2ccc(Cl)cc2CN1C(=O)OC1CC1 (single isomer, unassigned) [Cpd 191A]",100 to 500 nM,> 1000 nM,,++++ ((++++) denotes >20 (10^-6 cm/sec))
CC(C)N1Cc2cc(Cl)ccc2-n2c(nnc2C2CC3(C2)CN(c2ncccc2F)C3)C1 [compound 54],> 1000 nM,500 to 1000 nM,,
"CC1c2nnc(C3CC4(C3)CN(c3ncccn3)C4)n2-c2ccc(Cl)cc2CN1C(=O)OC(CF)CF (single isomer, unassigned) [Cpd 202A]",> 1000 nM,> 1000 nM,,+ ((+) denotes an apparent permeability <7 (10^-6 cm/sec))
"COC(=O)N1Cc2cc(Cl)ccc2-n2c(C3CC4(C3)CN(c3cnccn3)C4)nnc2C1C (single isomer, unassigned) [Cpd 165A]",500 to 1000 nM,> 1000 nM,,+ ((+) denotes an apparent permeability <7 (10^-6 cm/sec))
"CC1c2nnc(C3CC4(C3)CN(c3ccc(F)cn3)C4)n2-c2ccc(Cl)cc2CN1C(=O)C1(F)CC1 (single isomer, unassigned) [Cpd 174A]",100 to 500 nM,> 1000 nM,,++++ ((++++) denotes >20 (10^-6 cm/sec))
CC(C)OC(=O)N1Cc2cc(Cl)ccc2-n2c(C3CC4(C3)CN(c3cnccn3)C4)nnc2C1C (stereo not shown) [compound 164],100 to 500 nM,> 1000 nM,,
O=C(N1Cc2cc(Cl)ccc2-c2c(C3CC4(C3)CN(c3cccnn3)C4)noc2C1)C(F)(F)F [compound 105],100 to 500 nM,> 1000 nM,,
CCN1Cc2cc(Cl)ccc2-n2c(nnc2C2CC3(C2)CN(c2ccccn2)C3)C1 [compound 45],> 1000 nM,100 to 500 nM,,
"CC1c2nnc(C3CC4(C3)CN(c3ccccn3)C4)n2-c2ccc(Cl)cc2CN1C(=O)C1(F)CC1 (single isomer, unassigned) [Cpd 181A]",100 to 500 nM,100 to 500 nM,,++++ ((++++) denotes >20 (10^-6 cm/sec))
CN1Cc2cc(Cl)ccc2-n2c(nnc2C2CC3(C2)CN(c2ccccn2)C3)C1 [compound 2],> 1000 nM,> 1000 nM,,

SMILES,IC50 [1],IC50 [2],"IC50 ([1]; in vitro antagonist assay, reference compounds)",Papp AB MDR1 (MDR1-MDCK cells)
Clc1ccc2c(c1)CN(C1CCC1)Cc1nnc(C3CC4(C3)CN(c3ccccn3)C4)n1-2 [compound 41],500 to 1000 nM,< 100 nM,,
CCN1Cc2cc(Cl)ccc2-n2c(nnc2C2CC3(C2)CN(c2ccc(F)cn2)C3)C1 [compound 49],> 1000 nM,100 to 500 nM,,
"CC1c2nnc(C3CC4(C3)CN(c3ncccn3)C4)n2-c2ccc(Cl)cc2CN1C(=O)OC1CC1 (single isomer, unassigned) [Cpd 171B]",> 1000 nM,> 1000 nM,,
CN1Cc2cc(Cl)ccc2-n2c(nnc2C2CC3(C2)CN(C(=O)C2CC2)C3)C1 [compound 28],> 1000 nM,> 1000 nM,,
"CC1c2nnc(C3CC4(C3)CN(c3ccc(F)cn3)C4)n2-c2ccc(Cl)cc2CN1C (single isomer, unassigned) [Cpd 179A]",> 1000 nM,> 1000 nM,,
"COC(=O)N1Cc2cc(Cl)ccc2-n2c(C3CC4(C3)CN(c3ncccn3)C4)nnc2C1C (single isomer, unassigned) [Cpd 166A]",> 1000 nM,> 1000 nM,,
"CC1c2nnc(C3CC4(C3)CN(c3ccc(F)cn3)C4)n2-c2ccc(Cl)cc2CN1C(=O)OC(CF)CF (single isomer, unassigned) [Cpd 203A]",100 to 500 nM,500 to 1000 nM,,
CCN1Cc2cc(Cl)ccc2-n2c(nnc2C2CC3(C2)CN(c2cnccn2)C3)C1 [compound 46],> 1000 nM,> 1000 nM,,
"COC(=O)N1Cc2cc(Cl)ccc2-n2c(C3CC4(C3)CN(c3ccc(F)cn3)C4)nnc2C1C (single isomer, unassigned) [142A]",> 1000 nM,> 1000 nM,,++++ ((++++) denotes >20 (10^-6 cm/sec))
CC(C)N1Cc2cc(Cl)ccc2-n2c(nnc2C2CC3(C2)CN(c2ccccn2)C3)C1 [compound 48],> 1000 nM,500 to 1000 nM,,
CC(C)N1Cc2cc(Cl)ccc2-n2c(nnc2C2CC3(C2)CN(c2ccc(F)cn2)C3)C1 [compound 50],> 1000 nM,100 to 500 nM,,
Fc1ccc(N2CC3(CC(c4nnc5n4-c4ccc(Cl)cc4CN(C4CCC4)C5)C3)C2)nc1 [compound 42],500 to 1000 nM,< 100 nM,,
"CC1c2nnc(C3CC4(C3)CN(c3ncc(F)cn3)C4)n2-c2ccc(Cl)cc2CN1C(=O)OC1CC1 (single isomer, unassigned) [Cpd 192A]",> 1000 nM,> 1000 nM,,++++ ((++++) denotes >20 (10^-6 cm/sec))
"CCOC(=O)N1Cc2cc(Cl)ccc2-n2c(C3CC4(C3)CN(c3ccc(F)cn3)C4)nnc2C1C (single isomer, unassigned) [Cpd 169A]",100 to 500 nM,> 1000 nM,,++++ ((++++) denotes >20 (10^-6 cm/sec))
"CC1c2nnc(C3CC4(C3)CN(c3ccc(F)cn3)C4)n2-c2ccc(Cl)cc2CN1C(=O)C(C)(C)F (single isomer, unassigned) [Cpd 178A]",100 to 500 nM,100 to 500 nM,,++++ ((++++) denotes >20 (10^-6 cm/sec))
CN1Cc2cc(Cl)ccc2-n2c(nnc2C2CC3(C2)CN(c2ncccc2F)C3)C1 [compound 4],> 1000 nM,> 1000 nM,,
CC(CF)N1Cc2cc(Cl)ccc2-n2c(nnc2C2CC3(C2)CN(c2ccccn2)C3)C1 (stereo not shown) [compound 58],> 1000 nM,500 to 1000 nM,,
"COCCN1Cc2cc(Cl)ccc2-n2c(nnc2C2CC3(C2)CN(c2ccccn2)C3)C1 [compound 39, 8-chloro-5-(2-methoxyethyl)-1-(2-(pyridin-2-yl)-2-azaspiro[3.3]heptan-6-yl)-5,6-dihydro-4H-benzo[f][1,2,4]triazolo[4,3-a][1,4]diazepine]",> 1000 nM,> 1000 nM,,
"CC(C)OC(=O)N1Cc2cc(Cl)ccc2-n2c(C3CC4(C3)CN(c3ccc(F)cn3)C4)nnc2C1C (single isomer, unassigned) [Cpd 163A]",100 to 500 nM,> 1000 nM,,
